This is an account of results in patent publication US12612417B2, “Deuterated analogues of selenophenochromenes, synthesis thereof, and methods of using same agents” (Latvian Institute of Organic Synthesis, priority 2019, dated 2026).

Where a name gives a salt, the structure may show the parent alone. Bounds are passed on as bounds.

One data set deals with MDA-MB-231. Nature of the data set: In vitro cytotoxicity (MTT) on MDA-MB-231. Format: cell-based, human. The note with it: MDA-MB-231, MTT, 48 h.
Data set [1] can be described thus: In vitro cytotoxicity (MTT) on GM08402. Format: cell-based, human. The following applies: human, GM08402 fibroblasts. The method, then:
(§1) Anticancer activity of deuterated selenopheno[h]chromenes was tested in vitro using cytotoxicity assay. Thus, monolayer tumor cell lines MDA-MB-435s (human melanoma), MCF-7 (human breast adenocarcinoma, estrogen-positive), MES-SA (human uterus sarcoma), HT-1080 (human fibrosarcoma), A549 (human lung carcinoma), GM08402 (human fibroblast, apparently healthy), 3T3 (mouse embryo fibroblasts), H9C2 (rat cardiomyocytes) were cultured in standard medium DMEM (Dulbecco's modified Eagle's medium) (“Sigma”) supplemented with 10% heat-inactivated fetal bovine serum (“Sigma”). The cell viability was assessed by addition of 3-(4,5-dimethylthiazol-2-yl)-2,5-diphenyltetrazolinium bromide (MTT). Briefly, cells were seeded (2−6×10^4 cells/ml) in 96-well plates and allowed to attach for 24 h.
(§2) Tested compound solutions were prepared and serially diluted to obtain appropriate concentrations. Cells were treated with different concentrations (0.032-100 μM) and incubated for 48 h at 37° C., 5% CO2 Then the culture medium was removed and medium containing 0.2 mg/ml MTT was added. After 3 h (37° C., 5% CO2), the MTT-containing medium was removed, and 200 μl of dimethyl sulfoxide (DMSO) was immediately added to each sample. The absorbance was assessed at 540 nm on a Tecan multiplate reader Infinite 1000 (Austria). The half-maximal inhibitory concentration (IC50) of each compound was calculated using Graph Pad Prism® 3.0.

Data set [2] concerns HT-1080 (human fibrosarcoma). Nature of the data set: In vitro cytotoxicity (MTT) on HT-1080. Format: cell-based. The following applies: HT-1080, MTT, 48 h. As for the experimental part: as §1, §2
Data set [3] relates to A549 (human lung carcinoma). The data set can be described thus: In vitro cytotoxicity (MTT) on A549. Format: cell-based. The note with it: 48 h. As for the experimental part:
as §1, §2

In data set [4] the test system is MCF-7 (human breast adenocarcinoma, estrogen-positive). Nature of the data set: In vitro cytotoxicity (MTT) on MCF-7. Format: cell-based. The note with it: MCF-7, MTT, 48 h. The method, then:
as §1, §2

Data set [5] is described as follows: In vitro cytotoxicity (MTT) on H9C2. Format: cell-based, rat. The following applies: rat, H9C2 cardiomyocytes. As for the experimental part:
as §1, §2

Data set [6] is described as follows: In vitro cytotoxicity (MTT) on 3T3. Format: cell-based, mouse. The note with it: mouse, 3T3 embryo fibroblasts, 3T3, MTT. The method, then: as §1, §2
Data set [7] concerns MES-SA (human uterus sarcoma). The data set can be described thus: In vitro cytotoxicity (MTT) on MES-SA. Format: cell-based. The note with it: 48 h. The method, then: as §1, §2
The subject of data set [8] is GM08402 (human fibroblast, apparently healthy). The data set can be described thus: In vitro cytotoxicity (MTT) on GM08402. Format: cell-based. The following applies: 48 h. The method, then:
as §1, §2

Data set [9] can be described thus: Metabolic stability in vitro, lysate of human hepatoma cells HepG2. The following applies: 37° C. Format: in vitro ADME. As for the experimental part: Assay: the human hepatoma cells HepG2 (ATCC HB-8065) were grown in Eagle's Minimum Essential Medium supplemented with 10% fetal calf serum. The cells were harvested at 80% confluence. The hepatocytes were scraped, two time washed in Hank's Balanced Salt Solution (HBSS) buffer pH-7.4 and suspended in homogenization buffer composed of 10 mM Tris-HCl, 10 mM KCl, 0.15 mM MgCl2 pH 6.7. The cells were homogenized on ice by homogenizer LabGEN7 (Cole Palmer) at 5000 rpm 15 sec. Homogenized cells in HBSS with compound (protein concentration is 95 μg/ml) incubate 37° C. After 10, 30, 60, 120, 180, and 240 min collect 1 ml sample and add 0.1 ml 40% TCA, then centrifugation at 1200 g for 10 min. Supernatant collected and analyzed.
Results: The stability of deuterated selenopheno[h]chromenes I-1-I-3 compared with non-deuterated analogue methyl 7-bromo-8-((4-methylpiperazin-1-yl)methyl)-2-oxo-2H-selenopheno[3,2-h]chromene-3-carboxylate dihydrochloride (I-0) was tested in vitro using lysate of human hepatoma cells HepG2. The results are presented in FIG. 1 (x-axis—minutes of incubation, y-axis—percent of remained ester).

Data set [10] concerns H9C2 (rat cardiomyocytes). The data set can be described thus: In vitro cytotoxicity (MTT) on H9C2. Format: cell-based. The following applies: 48 h. The method, then: as §1, §2
Data set [11] relates to 3T3 (mouse embryo fibroblasts). The data set can be described thus: In vitro cytotoxicity (MTT) on 3T3. Format: cell-based. The following applies: 3T3, MTT, 48 h. The method, then: as §1, §2

`COC(=O)c1cc2ccc3c(Br)c(CN4CCN(C)CC4)[se]c3c2oc1=O` [Compound I-0, methyl 7-bromo-8-((4-methylpiperazin-1-yl)methyl)-2-oxo-2H-selenopheno[3,2-h]chromene-3-carboxylate dihydrochloride, reference compound]: the IC50 with MDA-MB-231 (Homo sapiens) is 95 ± 4 µM; in data set [2] (Homo sapiens), 58 ± 5 µM; in data set [3] (Homo sapiens), above 100 µM; in [4] (Homo sapiens, MCF7), 54 ± 6 µM; in [7] (Homo sapiens), 56 ± 1 µM. For the same compound, the IC50 at 48 h in [1] amounted to 77 ± 16 µM; in data set [5], 92 ± 12 µM; in data set [6], 100 ± 5 µM.

For the compound `[2H]C([2H])([2H])OC(=O)c1cc2ccc3c(Br)c(CN4CCN(C)CC4)[se]c3c2oc1=O` [Compound I-1, Methyl-d3 7-bromo-8-((4-methylpiperazin-1-yl)methyl)-2-oxo-2H-selenopheno[3,2-h]chromene-3-carboxylate dihydrochloride], the IC50 with MDA-MB-231 (Homo sapiens) is 84 ± 13 µM; in [2] (Homo sapiens), 70 ± 6 µM; in data set [3] (Homo sapiens), 105 ± 7 µM; in data set [4] (Homo sapiens, MCF7), 82 ± 5 µM; in data set [7] (Homo sapiens), 40 ± 7 µM. Also, the IC50 at 48 h in data set [1] was 89 ± 16 µM; in data set [5], 82 ± 14 µM; in data set [6], 66 ± 11 µM.

In the case of `Cl.Cl.[2H]C([2H])([2H])C([2H])([2H])OC(=O)c1cc2ccc3c(Br)c(CN4CCN(C)CC4)[se]c3c2oc1=O` [Compound I-2, Ethyl-d5 7-bromo-8-((4-methylpiperazin-1-yl)methyl)-2-oxo-2H-selenopheno[3,2-h]chromene-3-carboxylate dihydrochloride], the IC50 in the data set on MDA-MB-231 (Homo sapiens) was 90 ± 15 µM; in [2] (Homo sapiens), 59 ± 6 µM; in [3] (Homo sapiens) it was above 100 µM; in [4] (Homo sapiens, MCF7), 46 ± 4 µM; in [7] (Homo sapiens) it was 56 ± 15 µM. The values for the IC50 at 48 h in [1], in [5] and in data set [6] were 94 ± 8 µM, 73 ± 4 µM and 64 ± 9 µM, respectively.

With “Butyl-d9 7-bromo-8-((4-methylpiperazin-1-yl)methyl)-2-oxo-2H-selenopheno[3,2-h]chromene-3-carboxylate dihydrochloride [Compound I-3]”, the IC50 in the data set on MDA-MB-231 worked out at 35 ± 8 µM; in data set [8] it was 62 ± 3 µM; in data set [2], 31 ± 3 µM; in data set [3] it was 40 ± 13 µM; in data set [4], 70 ± 3 µM; in data set [10], 30 ± 4 µM. Further, the IC50 in data set [11] came out at 34 ± 7 µM; in [7], 29 ± 3 µM. For the same compound, in data set [9] (after 240 minutes of incubation), the “percent of remained ester” value was 24%. In addition, the “stability to hydrolysis (in words)” value in data set [9] (incubation up to 240 min, FIG. 1) is “highest stability to hydrolysis”.
